Reference: patent US20140073637A1, “AMINO-SUBSTITUTED-ALKYLOXY-BENZO[E]PYRIDO[4,3-B]INDOLE DERIVATIVES AS NEW POTENT KINASE INHIBITORS” (INSTITUT CURIE, priority 2011, published 2014)
Where two headings read alike, the source gives them in different places.

Key:
Aurora B = Aurora B (Homo sapiens, UniProt Q96GD4); experiment: Aurora B inhibition in cells: Histone H3 Ser10 phosphorylation by western blotting and immunofluorescence; format: cell-based; design: endogenous in cells; host or cells: U2OS (human osteosarcoma); HeLa also used for the maleate salts; key to Aurora B inhibition: +++: very efficient inhibition; −: no inhibition; conditions: for Aurora B inhibition in cellulo (Histone H3 phosphorylation, in words): U2OS mitotic extracts, 1 μM overnight, western blotting (FIG. 3); for Aurora B inhibition: cells, Histone H3 Ser10 phosphorylation, western blotting and immunofluorescence, compounds 1 μM
Method: Actin is used as control of quantity. Cells were incubated overnight in the presence of either C1, or C2 or CH21 or C14 or DMSO(C: control). All compounds were tested at 1 μM. Proteins were detected by western blotting.
Cells were incubated with the different molecules and Aurora B inhibition is estimated by western blotting (WB) and immuno fluorescent experiments. Histone H3 phosphorylated on Ser10 is used as a marker of Aurora B kinase activity and actin as an internal control. Each WB signal is compared to the control in the absence of compound. The efficiency estimated by WB is indicated by +++: very efficient inhibition to −: no inhibition. Immunofluorescent labelling of a mitotic cell by Histone H3 illustrates Aurora B kinase activity. However immunofluorescence is less sensitive than WB. Active molecules are underlined by a square and the intensity of the line indicates the efficiency of inhibition.
FIG. 10A: Immunofluorescence with phospho-Ser10-Histone H3 antibodies. Either the percentage of positive phospho-Ser10-Histone H3 is indicated or a representative mitosis shown. […] Immunofluorescent assays were realized with a specific phospho-antibody and mitotic U2OS cells are recognized by their DNA content stained with Hoechst. On the right, a representative cell or the percentage of H3-S10-P labelled mitosis.
(§1) FIG. 10B: Immunoblotting analysis of histone H3 phosphorylation. U2OS cells were incubated overnight with Nocodazole (50 nM) in the presence of either DMSO (Co) or Compounds (1 μM). Cells were then collected and lyzed. Identical amounts of the lyzed cell samples were run on 18% acrylamide gel containing SDS.
as §1, with “FIGS. 11B and 11C:” for “FIG. 10B:”, “U2OS and HeLa” for “U2OS”
Cells were incubated with the different molecules and Aurora B inhibition is estimated by western blotting and immunofluorescent experiments. Histone H3 phosphorylated on Ser10 is used as a marker of Aurora B kinase activity and actin as an internal control. Results are represented in FIGS. 4 and 10 and Table 3.
Cells were treated by compounds, harvested and lyzed in 9M urea then supplemented with Laemmli sample buffer. Cell extracts were subjected to SDS-PAGE and transferred to nitrocellulose filter (GE Healthcare). After blocking with 5% non-fat milk in PBS for at least 1 hour, the membranes were incubated with the primary antibodies. The following antibodies were used: phospho-Histone H3 Ser10 (1:2000, Upstate Biotechnology), anti LAST1 (Cell signalling), anti Aurora B (epitomics) and anti alpha-tubulin (Sigma) Anti-rabbit horseradish peroxidase (1:5000, GE Healthcare) was used as secondary antibodies. Bands were visualized by ECL technique (Amersham Bioscience).
Cells were seeded on glass coverslips and treated by compounds (1 μM) overnight. After treatment, cells were fixed in 4% formaldhehyde at 37° C. for 15 minutes, then permeabilized for 5 minutes with Triton X-100 in PBS.

HeLa cells = experiment: Cell viability / antiproliferative assay; format: cell-based; conditions: Homo sapiens, HeLa
Description: Antiproliferative assays with HeLa cells have been performed with the preferred compounds and compared to the C1 and C2. The average of three independent experiments is shown. IC50 obtained with C1 and C2 were previously reported in Hoang et al, 2009, and are indicated for comparison. The lateral chain of each molecule is recalled, knowing that all the molecules have an oxo group at position 11. IC50 are indicated, i.e. the concentration that induced 50% death.
H358, H322 (lung cancer cells), U373 (glioblastomes) and HeLa ([…]) were grown in DMEM (1.5 g/L glucose) whereas HL60 (human myeloid cell line) cells were in RPMI 1640. U2OS (a human osteosarcoma cell line) cells were cultured in McCoy's Medium 5 A and liver cells (SK Hep 1) in DMEM (4 g/L glucose, (Gibco-Invitrogen). Media (Gibco-Invitrogen), were supplemented with 10% heat-inactivated foetal bovine serum (Gibco-Invitrogen), L-glutamine (2 mM), penicillin (100 UI/ml) and streptomycin (100 μg/ml).
Cell proliferation assays were conducted in 96 well culture plates. Assays were run in triplicate. Cell viability was estimated upon 72 h of treatment with varying concentrations of compound by addition of CellTiter 96Queous one Solution Reagent (Promega) directly to culture wells under conditions defined by the manufacturer.

Aurora A = molecular target: T1, Aurora A (Homo sapiens, UniProt O14965); experiment: Kinase profiling in vitro at 1 μM; format: biochemical; conditions: for remaining activity at 1 µM / effect on kinase activity (FIG. 2, in words): Aurora A; for remaining activity at 1 µM: compound at 1 μM, read-out: percentage of remaining activity of recombinant kinase; for effect on kinase activity (FIG. 2, in words): recombinant kinase in vitro
T1 sequence (O14965 1-403): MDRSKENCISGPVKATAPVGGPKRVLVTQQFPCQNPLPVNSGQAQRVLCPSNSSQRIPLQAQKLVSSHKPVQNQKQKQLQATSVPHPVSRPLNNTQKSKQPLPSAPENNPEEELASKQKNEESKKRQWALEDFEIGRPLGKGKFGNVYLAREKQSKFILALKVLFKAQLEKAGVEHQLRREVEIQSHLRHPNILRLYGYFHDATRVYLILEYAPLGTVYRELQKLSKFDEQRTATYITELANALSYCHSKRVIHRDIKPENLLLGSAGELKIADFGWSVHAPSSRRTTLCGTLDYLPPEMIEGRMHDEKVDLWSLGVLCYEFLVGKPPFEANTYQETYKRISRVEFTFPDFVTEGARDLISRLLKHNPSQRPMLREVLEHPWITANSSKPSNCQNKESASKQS
Method: Assays were run in vitro against recombinant kinases. The activity is reported for each kinase, grey histograms for CH21, white for C14 and gradation grey for C1. […] Therefore, C1 and C14 affect differently the Aurora kinase family.
The specificity of C14 was tested, in vitro, against 121 kinases representative of the kinome. Assays run in duplicate, at the concentration of 1 μM, were performed by MRC (Dundee, UK). Results are represented in FIG. 1. The main targets are highlighted in FIG. 1B.
In addition, the percentage of remaining activity of recombinant kinases Aurora kinases A and B and Checkpoint kinases 1 and 2 at the concentration of 1 μM of C1, C2 and C14 have been determined.
The profiling was performed at the MRC (Dundee University), in duplicate, on a set of 121 kinases. The panel is representative of the major different classes of kinases. Compounds were used at the concentration of 1 μM. In vitro, IC50 were determined on recombinant kinases by Reaction biology Corp (USA).

[1] = 72 h, HeLa (Cervix), 72 h of treatment, read-out: IC50 (cell line viability)

Chain of Aurora B (Q96GD4 whole entry): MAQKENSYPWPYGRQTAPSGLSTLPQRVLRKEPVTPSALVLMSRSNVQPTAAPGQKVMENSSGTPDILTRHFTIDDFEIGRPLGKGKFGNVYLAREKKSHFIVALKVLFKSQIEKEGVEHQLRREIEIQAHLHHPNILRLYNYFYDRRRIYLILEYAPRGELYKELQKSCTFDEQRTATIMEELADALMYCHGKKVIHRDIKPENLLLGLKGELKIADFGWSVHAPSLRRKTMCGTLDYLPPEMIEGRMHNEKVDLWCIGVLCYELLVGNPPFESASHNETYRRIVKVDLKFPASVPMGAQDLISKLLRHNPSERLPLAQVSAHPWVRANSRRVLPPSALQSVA

Row | Aurora B inhibition in cellulo (Histone H3 phosphorylation, in words) (Aurora B) | Aurora B inhibition (Aurora B) | IC50 (HeLa cells; [1]) [nM] | remaining activity at 1 µM (Aurora A) [%] | effect on kinase activity (FIG. 2, in words) (Aurora A) | remaining activity (Aurora A; at 1 μM) [%] | SMILES | IC50 (HeLa cells; HeLa cells, average of three independent experiments, concentration that induced 50% death, read-out: IC50 (in nM), antiproliferative assay) [nM]
1 | inhibit efficiently | +++ | 960 | 7 | highly inhibited |  | CCc1c[nH]c(=O)c2c1[nH]c1ccc3cc(OC)ccc3c12 [Compound C1, reference compound] | 
2 | inhibit efficiently | +++ | 110 | 76 | not affected | 76 | Cc1c[nH]c(=O)c2c1[nH]c1ccc3cc(OCCN(C)C)ccc3c12 [Compound C14, 3-(2-N,N-Dimethylaminoethoxy)-8-methyl-7H,10H-benzo[e]pyrido(4,3-b)indol-11-one] | 170 ± 82

Row | SMILES | Aurora B inhibition in cellulo (Histone H3 phosphorylation, in words) (Aurora B) | Aurora B inhibition (Aurora B) | IC50 (HeLa cells; [1]) [nM] | remaining activity at 1 µM (Aurora A) [%] | effect on kinase activity (FIG. 2, in words) (Aurora A) | remaining activity (Aurora A; at 1 μM) [%] | IC50 (HeLa cells; HeLa cells, average of three independent experiments, concentration that induced 50% death, read-out: IC50 (in nM), antiproliferative assay) [nM]
3 | Cc1cncc2c1[nH]c1ccc3cc(OCCN(C)C)ccc3c12 [CH21, 3-(2-N,N-dimethylaminoethyloxy)-8-methyl-7H-benzo[e]pyrido(4,3-b)indole] | no effect | − | 350 |  | None of these kinases were significantly affected |  | 
